What was measured:
[1] = biological target: T1, hFPR1 (Homo sapiens, UniProt P21462); experiment: ERK1/2 phosphorylation (AlphaScreen SureFire) in hFPR1-FlpIn-CHO cells; format: cell-based; conditions: Table 10, receptor not given; for EC50 / ERK pEC50: values of 10394/10396 equal the hFPR1 values of Table 9; for EC50: read-out: ERK pEC50 (converted)
T1 construct: expressed in transfected cells
T1 sequence (P21462 1-350): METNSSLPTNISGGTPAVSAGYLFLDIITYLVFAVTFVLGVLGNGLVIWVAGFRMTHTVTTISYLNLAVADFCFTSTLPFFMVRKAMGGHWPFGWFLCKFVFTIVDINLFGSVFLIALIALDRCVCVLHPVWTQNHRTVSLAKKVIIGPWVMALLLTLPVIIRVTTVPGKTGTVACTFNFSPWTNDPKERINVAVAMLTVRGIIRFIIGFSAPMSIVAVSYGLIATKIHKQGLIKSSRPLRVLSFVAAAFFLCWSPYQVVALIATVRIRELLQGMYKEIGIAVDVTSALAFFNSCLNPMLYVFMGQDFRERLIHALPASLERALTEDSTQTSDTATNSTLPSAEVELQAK
Description: (§1) cDNDA construct and generation of stable cell lines: cDNA in pcDNA3.1^+ encoding the human formyl peptide receptors (FPR) subtypes, hFPR1, hFPR2 and hFPR3 was obtained from Invitrogen. The sequences for 3 hFPR receptors were amplified by PCR and cloned into the Gateway entry vector, pDONR202™, using the BP clonase enzyme mix, according to the manufactures' instructions (Invitrogen Inc, Carlsbad, Calif., USA). All hFPR receptors constructs in pDONR201™ were subsequently transfected into the pEF5/FRT/V5/dest vector using the LR clonase enzyme mix (Invitrogen). Receptor constructs (pEF5/FRT/V5/dest) were used to transfect FIp-In CHO cells as described previously (Valant C et al., PNAS, 2014). Cells were selected using 500 μg/mL hydromycin to generate cell lines stably expressing each receptor construct. Cells were maintained and cultured in high glucose DMEM supplemented with 10% FBS, 16 mM HEPES and 500 μg/mL hydromycin at 37° C. under a humidified atmosphere containing 5% CO2.
(§2) In the various assays described below, cells were plated into 96-well transparent cell culture plates at 4×10^4 cells per well, cultured overnight in serum-free media at 37° C. in 5% CO2.
Measurement of extracellular signal regulated kinase 1 and 2 phosphorylation (pERK1/2): Initial ERK1/2 phosphorylation at Thr202/Tyr204 time-course experiments were performed to determine the time at which ERK1/2 phosphorylation was maximal after stimulation by each agonist. Cells were seeded onto transparent 96-well cell culture plates at 4×10^4 cells per well. After 6 h, cells were washed once with PBS, and then incubated in serum-free DMEM overnight, to allow FBS-stimulated phosphorylated ERK1/2 levels to subside. […] 10% (v/v) FBS was used as a positive control, with vehicle controls also included. The reaction was terminated by removal of study drugs and lysis of cells with 100 μL of SureFire lysis buffer (TGR Biosciences). Cell were lysed in SureFire lysis buffer and transferred to 384-well opaque proxiplates. Under low-light conditions, a 1:120 (v:v) dilution of AlphaScreen beads (both acceptor and donor):Surefire reaction buffer was prepared, which was mixed with the activation buffer in a ratio of 6:1 (v:v), respectively. Plates were incubated in the dark at 37° C. for 1 h before the fluorescence signal was measured by a Fusion-α plate reader (PerkinElmer Life and Analytical Sciences, Foster city, CA, USA) with standard AlphaScreen settings. Data were normalized to the maximal response elicited by 10% (v/v) FBS at the same time point.
Receptor mediated pERK1/2 levels were determined using the AlphaScreen™ ERK1/2 SureFire™ kit, as described previously (Keov, P et al., 2014). For all experiments, 10% FBS was used as internal positive control to stimulate pERK1/2, and which the maximum responses were used for normalization of data, whilst vehicle was used as negative control.
(§3) Data analysis: All data were analysed using GraphPad Prism 6.0 (GraphPad Software, San Deigo, Calif., USA). Where appropriate, concentration-response curves were fitted to derive the maximal agonist effect (Emax), and the ligand potency estimate (pEC50), where Emax is the maximal possible response of the system (not the agonist), basal is the basal level of response in the absence of agonist, and pEC50 is the negative logarithm of the agonist concentration that gives a response halfway between Emax and basal.
In the present study, FIp-IN CHO cells and Gateway plasmid were obtained from Invitrogen Inc (Carlsbad, Calif., USA). The sequences for all 3 known human FPRs (hFPR1, hFPR2 and hFPR3) were amplified by PCR and cloned into the Gateway entry vector, pDONR202TM, using the BP clonase enzyme mix, according to the manufacturers' instructions. The hFPR pDONR201TM constructs were subsequently transfected into the pEF5/FRT/V5/dest vector using the LR clonase enzyme mix (Invitrogen).

[2] = biological target: T1, hFPR1; experiment: [Ca2+]i mobilization in FlpIn-CHO cells stably expressing hFPR1; format: cell-based; set-up: Calcium Rmax: unit not given here; conditions: Table 10, receptor not given, ND = Not detectable; for EC50: read-out: Calcium pEC50 (converted)
Description: as §1, §2
Intracellular calcium mobilization: Intracellular calcium mobilization was assayed as described previously (Keov, P et al., 2014). Briefly, cells were washed once using HEPES buffered saline (HBS) solution [150 mM NaCl, 2.2 mM CaCl2, 2.6 mM KCl, 1.2 mM MgCl2, 10 mM HEPEs, 10 mM D-Glucose, 0.5% (w/v) bovine serum albumin (BSA) and 4 mM probenecid] at pH 7.4, then treated with Fluo-4-AM (1 μM, in HBS/BSA/probenecid) for 60 min at 37° C. in 5% CO2 in the dark. Cells were then further washed and placed in HBS/BSA/probenecid solution for ligation addition and assay using the FLEXstation 3 plate reader (Molecular Devices, Sunnyvale, Calif.). For all experiments, peak change in fluorescence signal was normalized to the cellular response to 100 μM ATP, which was used as an internal positive control.
as §3
In the present study, FIp-IN CHO cells and Gateway plasmid were obtained from Invitrogen Inc (Carlsbad, Calif., USA). The sequences for all 3 known human FPRs (hFPR1, hFPR2 and hFPR3) were amplified by PCR and cloned into the Gateway entry vector, pDONR202TM, using the BP clonase enzyme mix, according to the manufacturers' instructions. The hFPR pDONR201TM constructs were subsequently transfected into the pEF5/FRT/V5/dest vector using the LR clonase enzyme mix (Invitrogen). Receptor constructs (pEF5/FRT/V5/dest) were used to transfect FIp-IN CHO cells, as described previously (Valant et al. 2014). Cells were selected using 500 μg/mL hydromycin to generate cell lines stably expressing each human receptor construct. Cells were maintained and cultured in high glucose Dulbecco's modified eagle medium (DMEM) supplemented with 10% fetal bovine serum (FBS, from JRH Biosciences, Lenexa, Kans., USA) and 500 μg/mL hydromycin B (Invitrogen Inc) at 37° C. under a humidified atmosphere containing 5% CO2. Cell were plated into 96-well transparent cell culture plates at 4×10^4 cells per well, cultured overnight in serum-free media at 37° C. in 5% CO2.
(ii) Intracellular Ca2+ mobilization: Intracellular Ca2+ mobilization was determined in stably-transfected recombinant hFPR CHO cells, as described previously (Valant et al. 2014).

| Structure (SMILES) | ERK Rmax [1] | EC50 [1] [nM] | Calcium Rmax [2] | ERK pEC50 [1] | EC50 [2] [nM] |
| --- | --- | --- | --- | --- | --- |
| Cc1cc(Cc2cccc3c2OCCO3)c(=O)n(CC(=O)Nc2ccc(Cl)cc2)n1 [MIPS-0014053] | 78 ± 13 | 1910 | – | – | – |
| Cc1cc(Cc2ccccn2)c(=O)n(CC(=O)Nc2ccc(Cl)cc2)n1 [MIPS-0010397] | 74 ± 3 | 1020 | 18 ± 8 | – | – |
| COc1ccc(Cc2cc(C)nn(C(C)C(=O)Nc3ccc(Br)cc3)c2=O)cc1 (stereo not shown) [MIPS-0008853] | 81 ± 6 | – | 26 ± 6 | 5.58 ± 0.14 | – |
| Cc1cc(Cc2ccc(F)cc2)c(=O)n(C(C)C(=O)Nc2ccc(Br)cc2)n1 (stereo not shown) [MIPS-0008857] | 89 ± 1 | – | 5 ± 1 | 5.74 ± 0.13 | – |
| COc1cccc(Cc2cc(C)nn(C(C)C(=O)Nc3ccc4c(c3)OCO4)c2=O)c1 (stereo not shown) [MIPS-0008856] | 64 ± 4 | 12600 | 19 ± 3 | – | – |
| COc1ccc(NC(=O)Cn2nc(C)cc(Cc3ccccc3OC)c2=O)cc1 [MIPS-0014052] | 64 ± 6 | – | 13 ± 3 | 5.10 ± 0.23 | – |
| COc1ccc(OC)c(Cc2cc(C)nn(CC(=O)Nc3ccc(Cl)cc3)c2=O)c1 [MIPS-0010384] | 77 ± 3 | – | 19 ± 2 | 5.00 ± 0.37 | 6030 |
| COc1ccccc1Cc1cc(C)nn(CC(=O)Nc2ccc(Cl)cc2)c1=O [MIPS-0010392] | 81 ± 2 | – | 17 ± 3 | 5.91 ± 0.13 | 18200 |
| COc1ccccc1Cc1cc(C)nn(CC(=O)Nc2ccc(C)cc2)c1=O [MIPS-0014058] | 87 ± 1 | 1150 | 32 ± 1 | – | 5010 |
| COc1cccc(Cc2cc(C)nn(C(C)C(=O)Nc3ccc4c(c3)OCO4)c2=O)c1 (stereo not shown) [MIPS-0008750] | 74 ± 7 | 5750 | 26 ± 6 | – | – |
| Cc1cc(Cc2ccccn2)c(=O)n(CC(=O)Nc2ccc(Cl)cc2)n1 [MIPS-0014057] | 91 ± 4 | 603 | 45 ± 10 | – | 4570 |
| Cc1cc(Cc2cccc(F)c2)c(=O)n(C(C)C(=O)Nc2ccc(Br)cc2)n1 (stereo not shown) [MIPS-0008859] | 93 ± 7 | – | 18 ± 3 | 5.68 ± 16 | – |
| COc1cccc(Cc2cc(C)nn(C(C)C(=O)Nc3cccc(F)c3)c2=O)c1 (stereo not shown) [MIPS-0008745] | 50 ± 4 | – | – | 5.12 ± 0.38 | – |
| COc1cccc(Cc2cc(C)nn(CC(=O)Nc3ccc(Cl)cc3)c2=O)n1 [MIPS-0014055] | 94 ± 11 | 1780 | 11 ± 2 | – | – |
| COc1cccc(Cc2cc(C)nn(C(C)C(=O)Nc3ccc(F)cc3)c2=O)c1 (stereo not shown) [MIPS-0008749] | 57 ± 2 | – | – | 5.07 ± 0.18 | – |
| CCc1ccc(NC(=O)Cn2nc(C)cc(Cc3ccccc3OC)c2=O)cc1 [MIPS-0014051] | 79 ± 9 | – | – | 5.30 ± 0.12 | – |
| COc1ccc(NC(=O)Cn2nc(C)cc(Cc3c(OC)cccc3OC)c2=O)cc1 [MIPS-0014071] | 78 ± 2 | 2630 | 48 ± 7 | – | 2820 |

Reference: patent US10328075B2, “Method of treatment and compounds for use therein” (Baker Heart and Diabetes Institute, priority 2015, dated 2019)
